Key:
[1] = system: E. faecalis clinical isolates; experiment: MIC90 studies: fluoroquinolone susceptibility of clinical isolate panel with EPI; type: cell-based; settings: EPI at 50 μg/ml
In short: (§1)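 Fluoroquinolone MICs with efflux pump inhibitor measured against panels of resistant clinical isolates by NCCLS protocols. MIC90 taken across each panel. Oxacillin and vancomycin MICs run alongside to flag methicillin-resistant S. aureus and vancomycin-resistant E. faecalis isolates.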

[2] = system: S. aureus clinical isolates; experiment: as above; type: cell-based; settings: EPI at 50 μg/ml
In short: as §1

B. subtilis = experiment: MIC of EtBr in presence and absence of EPI; type: cell-based; settings: B. subtilis wild type, EPI up to 100 μg/ml, data not shown
Excerpt: (§2) EtBr is a general substrate for many different efflux pumps in bacteria. Markham et al., “Multiple Novel Inhibitors of the NorA Multidrug Transporter of Staphylococcus aureus”, Antimicrob. Agents Chemother. 43:2404-2408 (1999). Since EtBr is a non-specific DNA intercalator, the only known mechanism of resistance to EtBr is via efflux. Markham et al., “Multiple Novel Inhibitors of the NorA Multidrug Transporter of Staphylococcus aureus”, Antimicrob. Agents Chemother. 43:2404-2408 (1999).

[3] = system: permeability mutant strains of E. coli; experiment: MIC of EtBr in presence and absence of EPI; type: cell-based
Excerpt: as §2

[4] = system: wild type gram negative organisms (E. coli, P. aeruginosa, and H. influenzae); experiment: MIC of EtBr in presence and absence of EPI; type: cell-based; settings: all wild type gram-negative organisms, compared with gram-positive
Excerpt: as §2

[5] = alone and in combination with chemotherapeutic agents for cancer therapies; cited from earlier work
[6] = E. faecalis clinical isolate 10
[7] = E. faecalis clinical isolate 11
[8] = E. faecalis clinical isolate 12
[9] = E. faecalis clinical isolate 13
[10] = E. faecalis clinical isolate 14
[11] = E. faecalis clinical isolate 15
[12] = E. faecalis clinical isolate 16
[13] = E. faecalis clinical isolate 17
[14] = E. faecalis clinical isolate 18
[15] = E. faecalis clinical isolate 19
[16] = E. faecalis clinical isolate 20
[17] = E. faecalis clinical isolate 21
[18] = E. faecalis clinical isolate 22
[19] = E. faecalis clinical isolate 23
[20] = E. faecalis clinical isolate 24
[21] = E. faecalis clinical isolate 25
[22] = E. faecalis clinical isolate 26

Structure (SMILES): COc1cc(C(=O)C(=O)N2CCCC[C@H]2C(=O)OC(CCCc2cccnc2)CCCc2cccnc2)cc(OC)c1OC [A-106]
- Ciprofloxacin MIC with EPI ([1]; E. faecalis clinical isolate 1): 0.5 µg/mL
- Norfloxacin MIC with EPI ([1]; E. faecalis clinical isolate 1): 2 µg/mL
- Ciprofloxacin MIC with EPI ([1]; E. faecalis clinical isolate 2): 0.5 µg/mL
- Norfloxacin MIC with EPI ([1]; E. faecalis clinical isolate 2): 1 µg/mL
- Ciprofloxacin MIC with EPI ([1]; E. faecalis clinical isolate 3): 32 µg/mL
- Norfloxacin MIC with EPI ([1]; E. faecalis clinical isolate 3): 64 µg/mL
- Ciprofloxacin MIC with EPI ([1]; E. faecalis clinical isolate 4): 32 µg/mL
- Norfloxacin MIC with EPI ([1]; E. faecalis clinical isolate 4): 64 µg/mL
- Ciprofloxacin MIC with EPI ([1]; E. faecalis clinical isolate 5): 32 µg/mL
- Norfloxacin MIC with EPI ([1]; E. faecalis clinical isolate 5): 64 µg/mL
- Ciprofloxacin MIC with EPI ([1]; E. faecalis clinical isolate 6): 0.5 µg/mL
- Norfloxacin MIC with EPI ([1]; E. faecalis clinical isolate 6): 1 µg/mL
- Ciprofloxacin MIC with EPI ([1]; E. faecalis clinical isolate 7): 0.5 µg/mL
- Norfloxacin MIC with EPI ([1]; E. faecalis clinical isolate 7): 1 µg/mL
- Ciprofloxacin MIC with EPI ([1]; E. faecalis clinical isolate 8): 32 µg/mL
- Norfloxacin MIC with EPI ([1]; E. faecalis clinical isolate 8): 64 µg/mL
- Ciprofloxacin MIC with EPI ([1]; E. faecalis clinical isolate 9): 1 µg/mL
- Norfloxacin MIC with EPI ([1]; E. faecalis clinical isolate 9): 2 µg/mL
- Ciprofloxacin MIC with EPI [1, 6]: 16 µg/mL
- Norfloxacin MIC with EPI [1, 6]: 32 µg/mL
- Ciprofloxacin MIC with EPI [1, 7]: 16 µg/mL
- Norfloxacin MIC with EPI [1, 7]: 64 µg/mL
- Ciprofloxacin MIC with EPI [1, 8]: 0.5 µg/mL
- Norfloxacin MIC with EPI [1, 8]: 1 µg/mL
- Ciprofloxacin MIC with EPI [1, 9]: 0.5 µg/mL
- Norfloxacin MIC with EPI [1, 9]: 1 µg/mL
- Ciprofloxacin MIC with EPI [1, 10]: 0.25 µg/mL
- Norfloxacin MIC with EPI [1, 10]: 0.5 µg/mL
- Ciprofloxacin MIC with EPI [1, 11]: 1 µg/mL
- Norfloxacin MIC with EPI [1, 11]: 2 µg/mL
- Ciprofloxacin MIC with EPI [1, 12]: 1 µg/mL
- Norfloxacin MIC with EPI [1, 12]: 2 µg/mL
- Ciprofloxacin MIC with EPI [1, 13]: 0.5 µg/mL
- Norfloxacin MIC with EPI [1, 13]: 2 µg/mL
- Ciprofloxacin MIC with EPI [1, 14]: 32 µg/mL
- Norfloxacin MIC with EPI [1, 14]: 64 µg/mL
- Ciprofloxacin MIC with EPI [1, 15]: 1 µg/mL
- Norfloxacin MIC with EPI [1, 15]: 2 µg/mL
- Ciprofloxacin MIC with EPI [1, 16]: 0.5 µg/mL
- Norfloxacin MIC with EPI [1, 16]: 2 µg/mL
- Ciprofloxacin MIC with EPI [1, 17]: 0.5 µg/mL
- Norfloxacin MIC with EPI [1, 17]: 1 µg/mL
- Ciprofloxacin MIC with EPI [1, 18]: 32 µg/mL
- Norfloxacin MIC with EPI [1, 18]: 64 µg/mL
- Ciprofloxacin MIC with EPI [1, 19]: 32 µg/mL
- Norfloxacin MIC with EPI [1, 19]: 32 µg/mL
- Ciprofloxacin MIC with EPI [1, 20]: 16 µg/mL
- Norfloxacin MIC with EPI [1, 20]: 32 µg/mL
- Ciprofloxacin MIC with EPI [1, 21]: 32 µg/mL
- Norfloxacin MIC with EPI [1, 21]: 64 µg/mL
- Ciprofloxacin MIC with EPI [1, 22]: 32 µg/mL
- Norfloxacin MIC with EPI [1, 22]: 64 µg/mL
- trend in the reduction of MICs for ciprofloxacin and norfloxacin ([1]; E. faecalis isolates, Table 5B): two-fold trend in the reduction of MICs
- change of norfloxacin MIC in combination with EPI ([2]; S. aureus isolates # 3, 6, 9): reductions in MICs
- change of ciprofloxacin MIC in combination with EPI ([2]; S. aureus isolates # 3 and 5): reductions in MICs
- isolates with >2-fold decrease in the MIC for ciprofloxacin ([2]; S. aureus isolates, Table 5A): 10/15
- isolates with >2-fold decrease in the MIC for norfloxacin ([2]; S. aureus isolates, Table 5A): 13/15
- restoration of clinical susceptibility ([2]; highly fluoroquinolone-resistant strains in the panel): insufficient to restore clinical susceptibility
- Ciprofloxacin MIC with EPI ([2]; S. aureus clinical isolate 1): 0.5 µg/mL
- Norfloxacin MIC with EPI ([2]; S. aureus clinical isolate 1): 2 µg/mL
- Ciprofloxacin MIC with EPI ([2]; S. aureus clinical isolate 2): 0.12 µg/mL
- Norfloxacin MIC with EPI ([2]; S. aureus clinical isolate 2): ≦0.25 μg/ml
- Ciprofloxacin MIC with EPI ([2]; S. aureus clinical isolate 3): ≦0.06 μg/ml
- Norfloxacin MIC with EPI ([2]; S. aureus clinical isolate 3): ≦0.25 μg/ml
- Ciprofloxacin MIC with EPI ([2]; S. aureus clinical isolate 4): 64 µg/mL
- Norfloxacin MIC with EPI ([2]; S. aureus clinical isolate 4): 128 µg/mL
- Ciprofloxacin MIC with EPI ([2]; S. aureus clinical isolate 5): ≦0.06 μg/ml
- Norfloxacin MIC with EPI ([2]; S. aureus clinical isolate 5): ≦0.25 μg/ml
- Ciprofloxacin MIC with EPI ([2]; S. aureus clinical isolate 6): 8 µg/mL
- Norfloxacin MIC with EPI ([2]; S. aureus clinical isolate 6): 8 µg/mL
- Ciprofloxacin MIC with EPI ([2]; S. aureus clinical isolate 7): ≦0.06 μg/ml
- Norfloxacin MIC with EPI ([2]; S. aureus clinical isolate 7): ≦0.25 μg/ml
- Ciprofloxacin MIC with EPI ([2]; S. aureus clinical isolate 8): 0.25 µg/mL
- Norfloxacin MIC with EPI ([2]; S. aureus clinical isolate 8): 1 µg/mL
- Ciprofloxacin MIC with EPI ([2]; S. aureus clinical isolate 9): ≦0.06 μg/ml
- Norfloxacin MIC with EPI ([2]; S. aureus clinical isolate 9): ≦0.25 μg/ml
- Ciprofloxacin MIC with EPI ([2]; S. aureus clinical isolate 10): 8 µg/mL
- Norfloxacin MIC with EPI ([2]; S. aureus clinical isolate 10): 16 µg/mL
- Ciprofloxacin MIC with EPI ([2]; S. aureus clinical isolate 11): 8 µg/mL
- Norfloxacin MIC with EPI ([2]; S. aureus clinical isolate 11): 32 µg/mL
- Ciprofloxacin MIC with EPI ([2]; S. aureus clinical isolate 12): ≦0.06 μg/ml
- Norfloxacin MIC with EPI ([2]; S. aureus clinical isolate 12): ≦0.25 μg/ml
- Ciprofloxacin MIC with EPI ([2]; S. aureus clinical isolate 13): 32 µg/mL
- Norfloxacin MIC with EPI ([2]; S. aureus clinical isolate 13): 64 µg/mL
- Ciprofloxacin MIC with EPI ([2]; S. aureus clinical isolate 14): 32 µg/mL
- Norfloxacin MIC with EPI ([2]; S. aureus clinical isolate 14): 64 µg/mL
- Ciprofloxacin MIC with EPI ([2]; S. aureus clinical isolate 15): 32 µg/mL
- Norfloxacin MIC with EPI ([2]; S. aureus clinical isolate 15): 64 µg/mL
- reduction of the MIC of EtBr (B. subtilis): 8 fold
- efflux inhibitory activity [3]: some efflux inhibitory activity was observed
- activity against efflux of EtBr [4]: much less active
- adverse events in clinical studies [5]: only mild adverse events
